Read-outs that look alike come from different tables or passages of the source.
Legend:
U251 Parent (Sensitive) = test: AlamarBlue cell viability, U251 parent (TMZ sensitive); assay type: cell-based; details: Homo sapiens, U-251; 72 hours
Experimental: (§1) Cells were seeded in 96-well plates. The day after, cells were treated with various concentrations of temozolomide or TP3. Cell viability was measured by AlamarBlue™ cell viability reagent after 72 hours, considering the control level of cells to be 100%.

GBM8 = test: AlamarBlue cell viability, GBM8 patient-derived cell line; assay type: cell-based; details: 72 h, read-out: IC50, 72 h
Experimental: (§2) The effect of selected compounds on glioma cells viability was determined. The cells were plated at 2000 cells/well in 96 well plates. The day after, cells were treated with various concentrations of temozolomide or VMY-TP analogs.

U251 Resistant = test: AlamarBlue cell viability, U251 TMZ resistant; assay type: cell-based; details: Homo sapiens, U-251; 72 hours
Experimental: as §1

[1] = Aqueous chemical stability (HPLC-MS); assay type: physicochemical
Experimental: Detection of products of non-enzymatic cleavage (AIC-TMZ, AIC-TP3, AIC-TP5, and AIC-TP9) was performed (Table 4; FIGS. 5A-5D).

[2] = Pre-formulation testing: solubility, pH and stability in vehicles; assay type: physicochemical
Experimental: Two formulations for TP3 and TMZ were prepared (Tables 10 and 11). Pre-formulation testing was in volumes of 100 μl-250 μl, and should be confirmed with larger volumes. Mice were dosed at 20 mg/kg of TMZ and TP3 using formulation 2 orally and brain and plasma samples were collected at 0, 0.5, 1, 3, 6 and 12 h timepoints and the concentration was measured using LC-MS and calculate PK parameters using standard equation. The stability profile (FIGS. 9A and 9B) and release kinetics profiles (FIGS. 10A and 10B) were compared. Single dose oral brain to plasma pharmacokinetic parameters were determined with Formulation 2 (Table 12).

T98G = test: cells; details: Homo sapiens, 72 h
Experimental: as §2
(§3) Activity of TP-RGD was assessed in glioma cell cultures, as described in Example 11.

U251 = test: cells; details: Homo sapiens, U-251, 72 h
Experimental: as §2, §3

U87MG Parent (Sensitive) = test: AlamarBlue cell viability, U87MG parent (TMZ sensitive); assay type: cell-based; details: Homo sapiens, U-87 MG; 72 hours
Experimental: as §1

P-gp = test: Bidirectional Caco-2 permeability / P-gp efflux assay; assay type: in vitro ADME; details: human; for Papp A→B: read-out: Papp (AB) p-gp Inhibitor (−); for Papp B→A: read-out: Papp (BA) p-gp Inhibitor (−)
Experimental: Permeability of the compounds was evaluated in the bidirectional Caco-2 assay including identification of P-glycoprotein substrate (Pgp-mediated transport). Verapamil was used as a p-gp inhibitor. The apparent permeability (Papp) was calculated using the following equation:
Papp=VA/Area×Time×[drug]acc/[drug]initial,d
Permeability of the compounds was evaluated in the bidirectional Caco-2 assay as described in Example 11 (Table 15).

T98G cells = test: Cell Titer Glo viability of T98G cells with or without O6-BG pretreatment; assay type: cell-based; details: Homo sapiens
Experimental: T98G cells, which express MGMT, were treated with TMZ or test compounds with or without 3, 6, or 24 hours of pretreatment with 100 μM of O^6-benzylguanine (O^6-BG; a pseudo-substrate of MGMT that quenches the cellular store of enzyme). T98G cell lysates were probed with anti-MGMT antibody and then with anti-a tubulin (FIG. 4). In a separate experiment, TMZ or test compounds were added to T98G cells with or without 5-6 hours of pretreatment with 100 μM O^6-BG. Cell viability was measured using the Cell Titer Glo assay after 3 days of incubation and IC50 values were determined (Table 3).

[3] = BBB permeability, cassette intravenous dosing; assay type: in vivo, male CD-1 mice; details: cassette IV 5 mg/kg; for % Brain / % Plasma: 5 min; for concentration at 5 min / Kp at 5 min: male, CD-1, mouse; for concentration at 5 min: 10% DMSO in PBS; for Kp at 5 min: brain/plasma
Experimental: BBB permeability of the compounds was tested in male CD-1@IGS mice using cassette intravenous dosing (Table 7 and FIGS. 6A and 6B). There were three animals in each group, given a dose of 5 mg/kg formulated in 10% DMSO in PBS (v/v) for 5 minutes. The endpoint was quantifying the parent compound using LC-MS/MS. Plasma samples (50 μl) were immediately mixed with 25 μl of H3PO4 (8.5%). Then 225 μl of internal standard (IS; 400 ng/ml meldonium in methanol) was added. After mixing by pipetting and centrifuging for 4 min at 6000 rpm, 2 μl of each supernatant was injected into LC-MS/MS system. Brain samples (100 mg±1 mg) were immediately mixed with 100 μl H3PO4 (25%) and zirconium oxide beads (115 mg±5 mg). Then 400 μl of IS solution was added and samples were disperse using a bullet blender homogenizer for 30 seconds at speed 8. The samples were centrifuged for 4 min at 14,000 rpm and 2 μl of each supernatant was injected into LC-MS/MS system.

[4] = Metabolic stability in mouse liver microsomes; assay type: in vitro ADME; details: for microsomal CLint: mouse, liver microsomes
Experimental: Metabolic stability of the compounds was also determined in mouse liver microsomes at five time points over 60 minutes, using HPLC-MS. Liver microsomes, as vesicles of the hepatocyte endoplasmic reticulum, contain membrane phase I enzymes namely CYPs, flavine-containing monooxygenases (FMO), esterases, amidases, and epoxide hydrolases, and also the phase II enzymes such as UGTs. For the catalytic activity of both phase I and II enzymes, addition of exogenous cofactors such as NADPH for CYPs and FMO, and UDPGA/alamethicin for UGTs is necessary.

[5] = 2.0 mg/mL in 10% DMA + 15% Solutol HS15 + 10% PEG 400 + 10% PG + 55% of 15% (w/v) Captisol
[6] = Caco-2, without verapamil, read-out: Efflux Ratio BA/AB p-gp Inhibitor (−)
[7] = read-out: Intrinsic clearance (Clint)
[8] = 2.0 mg/mL in 10% DMA + 10% Tween 80 + 15% PEG 400 + 15% PG + 50% of 15% (w/v) Captisol
[9] = 2.0 mg/mL in 10% DMA + 10% Tween 80 + 15% PEG 400 + 15% PG + 50% of 25% (w/v) Captisol
[10] = 4.0 mg/mL in 5% DMA + 10% Tween 80 + 10% PEG 400 + 10% PG + 65% of 50% (w/v) Captisol
[11] = 4.0 mg/mL in 10% DMA + 10% Tween 80 + 10% PEG 400 + 10% PG + 60% of 50% (w/v) Captisol

Cn1nnc2c(C(N)=O)ncn2c1=O [TMZ, temozolomide]
IC50 (U251 Parent (Sensitive)): 70 µM | IC50 (GBM8; GBM8, MGMT −, Table 2): 45 µM | IC50 (U251 Resistant): 180 µM | half-life at 1 μM ([1]; 0.1 M phosphate buffer pH 8.0): 31 min | half-life at 1 μM ([1]; PBS pH 7.4): 59 min | Remarks (solubility) [2, 5]: Soluble | Stability (0-4 h) ([2]; Formulation 2, 2 mg/ml): Stable | Stability (0-4 h) ([2]; Formulation 3, 2 mg/ml): Stable | IC50 (T98G; read-out: IC50, 72 h, T98G, MGMT +++, Table 14): > 600 µM | IC50 (T98G; read-out: IC50, 72 h, T98G, MGMT +, Table 2): 1140 µM | IC50 (U251; read-out: IC50, 72 h, U251, MGMT −, Table 2): 898 µM | IC50 (U251; read-out: IC50, 72 h, U251, MGMT −, Table 14): 383 µM | IC50 (U87MG Parent (Sensitive)): 310 µM | efflux ratio (P-gp; Caco-2, Caco-2 permeability, P-gp efflux ratio, Table 15, read-out: Efflux Ratio): 1.04 | efflux ratio (P-gp; [6]): 1 | Papp A→B (P-gp; Caco-2, without verapamil): 20.2 ×10⁻⁶ cm/s | Papp B→A (P-gp; Caco-2, without verapamil): 21 ×10⁻⁶ cm/s | IC50 (T98G cells; 5-6 h pretreatment with 100 μM O6-BG, 3 days, read-out: IC50 With O^6-BG pretreatment): > 1000 µM | IC50 (T98G cells; 3 days, read-out: IC50 Without O^6-BG pretreatment): > 1000 µM | % Brain [3]: 7% | % Plasma [3]: 93% | concentration at 5 min ([3]; brain, read-out: Brain Conc.): 1290 ng/g | Kp at 5 min [3]: 0.23 | concentration at 5 min ([3]; plasma, read-out: Plasma Conc): 5540 ng/mL | Clearance Classification (Low <8.6; High >48) [4]: Moderate | microsomal CLint [4, 7]: 15 µL/min/mg | % remaining (1 h) With co-factors [4]: 65% | % remaining (1 h) Without co-factors [4]: 72%

CCCCCCNC(=O)c1ncn2c(=O)n(C)nnc12 [TP3, N-hexyl-3-methyl-4-oxo-3,4-dihydroimidazo[5,1-d][1,2,3,5]tetrazine-8-carboxamide]
IC50 (U251 Parent (Sensitive)): 71 µM | IC50 (GBM8): 2 µM | IC50 (U251 Resistant): 63 µM | half-life at 1 μM ([1]; 0.1 M phosphate buffer pH 7.0): 119 min | half-life at 1 μM ([1]; 0.1 M phosphate buffer pH 8.0): 39 min | half-life at 1 μM ([1]; PBS pH 7.4): 62 min | Remarks (solubility) ([2]; 2.0 mg/mL in 5% DMA + 10% Tween 80 + 10% PEG 400 + 10% PG + 65% of 15% (w/v) Captisol): Not Soluble | Remarks (solubility) ([2]; 2.0 mg/mL in 10% DMA + 10% Tween 80 + 10% PEG 400 + 10% PG + 60% Normal saline): Not Soluble | pH ([2]; 2.0 mg/mL in 10% DMA + 10% Tween 80 + 10% PEG 400 + 10% PG + 60% of 15% (w/v) Captisol (100 μL)): ~6 | Remarks (solubility) ([2]; 2.0 mg/mL in 10% DMA + 10% Tween 80 + 10% PEG 400 + 10% PG + 60% of 15% (w/v) Captisol (100 μL, from 20 mg/mL DMA stock)): Soluble | Remarks (solubility) ([2]; 2.0 mg/mL in 10% DMA + 10% Tween 80 + 10% PEG 400 + 10% PG + 60% of 15% (w/v) Captisol (250 μL)): Not Soluble | Remarks (solubility) ([2]; 2.0 mg/mL in 10% DMA + 10% Tween 80 + 10% PEG 400 + 10% PG + 60% of 15% (w/v) HPβCD): Not Soluble | Remarks (solubility) [2, 8]: Soluble | pH [2, 8]: ~6 | Remarks (solubility) [2, 9]: Soluble | pH [2, 9]: ~6 | Remarks (solubility) [2, 5]: Soluble | Remarks (solubility) [2, 10]: Soluble | pH [2, 10]: ~6 | Remarks (solubility) ([2]; 4.0 mg/mL in 5% DMA + 10% Tween 80 + 10% PEG 400 + 10% PG + 65% of 50% (w/v) HPβCD): Not Soluble | Remarks (solubility) ([2]; 4.0 mg/mL in 10% DMA + 5% Tween 80 + 15% PEG 400 + 15% PG + 50% of 25% (w/v) Captisol): Not Soluble | Remarks (solubility) ([2]; 4.0 mg/mL in 10% DMA + 5% Tween 80 + 85% Normal saline): Not Soluble | Remarks (solubility) ([2]; 4.0 mg/mL in 10% DMA + 10% Tween 80 + 10% PEG 400 + 10% PG + 60% Normal saline): Not Soluble | Remarks (solubility) [2, 11]: Soluble | pH [2, 11]: ~6 | Remarks (solubility) ([2]; 4.00 mg/mL in 25% of DMSO + 75% Normal Saline): Not Soluble | Stability (0-4 h) ([2]; Formulation 2, 2 mg/ml): Stable | pH ([2]; Formulation 2, 2 mg/ml): 4.81 | Stability (0-4 h) ([2]; Formulation 3, 2 mg/ml): Stable | pH ([2]; Formulation 3, 2 mg/ml): 5.66 | IC50 (T98G; read-out: IC50, 72 h): 1260 µM | IC50 (U251; read-out: IC50, 72 h): 397 µM | IC50 (U87MG Parent (Sensitive)): 250 µM | efflux ratio (P-gp; [6]): 0.6 | Papp A→B (P-gp; Caco-2, without verapamil): 30.7 ×10⁻⁶ cm/s | Papp B→A (P-gp; Caco-2, without verapamil): 17 ×10⁻⁶ cm/s | IC50 (T98G cells; read-out: IC50 With O^6-BG pretreatment): 675 µM | IC50 (T98G cells; read-out: IC50 Without O^6-BG pretreatment): 1050 µM | % Brain [3]: 20% | % Plasma [3]: 80% | concentration at 5 min ([3]; brain, read-out: Brain Conc.): 2080 ng/g | Kp at 5 min [3]: 0.71 | concentration at 5 min ([3]; plasma, read-out: Plasma Conc): 2920 ng/mL | microsomal CLint ([4]; read-out: Clearance Classification (Low <8.6; High >48)): > 48 µL/min/mg | microsomal CLint [4, 7]: 358 µL/min/mg | % remaining (1 h) With co-factors [4]: 0% | % remaining (1 h) Without co-factors [4]: 80%

Source: patent US20230303577A1, “TEMOZOLOMIDE ANALOGS AND METHODS OF USE” (St. John's Cancer Institute, priority 2020, published 2023)
